In patent US20220062418A1, “TUMOR TARGETING VITAMIN B12 DERIVATIVES FOR X-RAY ACTIVATED CHEMOTHERAPY” (THE TRUSTEES OF DARTMOUTH COLLEGE, priority 2018, published 2022) one finds microvessel perfusion and stromal formation data, which are given here for 1 compound.

This experiment relates to tumor stroma. In words: Losartan effect on stroma and perfusion in two tumor models. It is filed as in vivo. Conditions: preliminary data. An excerpt:
In an alternative embodiment, we add transcobalamin II to enhance uptake of cobalamin derivatives into tissue. […] Drug delivery is thought to be impeded by the dense stroma of pancreatic adenocarcinoma, and so delivery of cobalamin conjugates could be limited by this issue. […] In an alternative embodiment we treat with Losartan for 10 days prior to cobalamin-drug conjugate treatment to enhance the delivery of this platform to the PDAC tumor stroma.

As for `CCCCc1nc(Cl)c(CO)n1Cc1ccc(-c2ccccc2-c2nn[nH]n2)cc1` [Losartan], the microvessel perfusion entry was “increases in microvessel perfusion” and the stromal formation entry was “reduce stromal formation”.
